Assay results reported in the NIST ThermoML archive (doi:10.1021/je700406p).

Assay: wn = mass fraction of the nth substance listed
Conditions: Liquid, Vibrating tube method

CC(C)(N)CO [2-amino-2-methylpropan-1-ol] + O
Conditions | mass density [kg/m3]
313.13 K, 500 kPa, w1 = 0.1997 | 989.5
313.13 K, 995 kPa, w1 = 0.2821 | 988.9
313.13 K, 998 kPa, w1 = 0.4002 | 985.4
313.13 K, 999 kPa, w1 = 0.4976 | 978.1
313.13 K, 1000 kPa, w1 = 0.1997 | 989.8
313.13 K, 2000 kPa, w1 = 0.1997 | 990.1
313.13 K, 2002 kPa, w1 = 0.2821 | 989.2
313.13 K, 2006 kPa, w1 = 0.4002 | 985.8
313.13 K, 2014 kPa, w1 = 0.4976 | 978.5
313.13 K, 2993 kPa, w1 = 0.2821 | 989.6
313.13 K, 2995 kPa, w1 = 0.4002 | 986.2
313.13 K, 3000 kPa, w1 = 0.1997 | 990.5
313.13 K, 3001 kPa, w1 = 0.4976 | 978.9
313.13 K, 3995 kPa, w1 = 0.4002 | 986.6
313.13 K, 4000 kPa, w1 = 0.1997 | 990.9
313.13 K, 4001 kPa, w1 = 0.2821 | 990
313.13 K, 4001 kPa, w1 = 0.4976 | 979.3
313.13 K, 4995 kPa, w1 = 0.2821 | 990.4
313.13 K, 4999 kPa, w1 = 0.4002 | 986.9
313.13 K, 4999 kPa, w1 = 0.4976 | 979.7
313.13 K, 5000 kPa, w1 = 0.1997 | 991.2
313.13 K, 5999 kPa, w1 = 0.4002 | 987.3
313.13 K, 6000 kPa, w1 = 0.1997 | 991.6
313.13 K, 6000 kPa, w1 = 0.4976 | 980.2
313.13 K, 6005 kPa, w1 = 0.2821 | 990.8
313.13 K, 6987 kPa, w1 = 0.2821 | 991.1
313.13 K, 6994 kPa, w1 = 0.4002 | 987.7
313.13 K, 6995 kPa, w1 = 0.4976 | 980.6
313.13 K, 7000 kPa, w1 = 0.1997 | 992
313.13 K, 7986 kPa, w1 = 0.4002 | 988.1
313.13 K, 7991 kPa, w1 = 0.2821 | 991.5
313.13 K, 8000 kPa, w1 = 0.1997 | 992.4
313.13 K, 8003 kPa, w1 = 0.4976 | 980.9
313.13 K, 8992 kPa, w1 = 0.4002 | 988.5
313.13 K, 8997 kPa, w1 = 0.2821 | 991.9
313.13 K, 8997 kPa, w1 = 0.4976 | 981.4
313.13 K, 9007 kPa, w1 = 0.1997 | 992.8
313.13 K, 9992 kPa, w1 = 0.4002 | 988.9
313.13 K, 9995 kPa, w1 = 0.2821 | 992.3
313.13 K, 9999 kPa, w1 = 0.4976 | 981.8
313.13 K, 10002 kPa, w1 = 0.1997 | 993.2
313.13 K, 10989 kPa, w1 = 0.4976 | 982.1
313.13 K, 10990 kPa, w1 = 0.2821 | 992.6
313.13 K, 10993 kPa, w1 = 0.4002 | 989.2
313.13 K, 11000 kPa, w1 = 0.1997 | 993.6
313.13 K, 11991 kPa, w1 = 0.2821 | 993
313.13 K, 11992 kPa, w1 = 0.4002 | 989.6
313.13 K, 11996 kPa, w1 = 0.4976 | 982.6
313.13 K, 12000 kPa, w1 = 0.1997 | 994
313.13 K, 12982 kPa, w1 = 0.2821 | 993.4
313.13 K, 13000 kPa, w1 = 0.1997 | 994.4
313.13 K, 13002 kPa, w1 = 0.4002 | 990
313.13 K, 13006 kPa, w1 = 0.4976 | 983
313.13 K, 13991 kPa, w1 = 0.2821 | 993.8
313.13 K, 13999 kPa, w1 = 0.4002 | 990.4
313.13 K, 14000 kPa, w1 = 0.1997 | 994.7
313.13 K, 14001 kPa, w1 = 0.4976 | 983.4
313.13 K, 14997 kPa, w1 = 0.2821 | 994.2
313.13 K, 14999 kPa, w1 = 0.4002 | 990.8
313.13 K, 15001 kPa, w1 = 0.4976 | 983.8
313.13 K, 15002 kPa, w1 = 0.1997 | 995.1
313.13 K, 15990 kPa, w1 = 0.2821 | 994.5
313.13 K, 15992 kPa, w1 = 0.4002 | 991.2
313.13 K, 15992 kPa, w1 = 0.4976 | 984.2
313.13 K, 16000 kPa, w1 = 0.1997 | 995.5
313.13 K, 16989 kPa, w1 = 0.2821 | 994.9
313.13 K, 16992 kPa, w1 = 0.4976 | 984.6
313.13 K, 16994 kPa, w1 = 0.4002 | 991.5
313.13 K, 17001 kPa, w1 = 0.1997 | 995.9
313.13 K, 17985 kPa, w1 = 0.4976 | 985
313.13 K, 17988 kPa, w1 = 0.2821 | 995.3
313.13 K, 17989 kPa, w1 = 0.4002 | 991.9
313.13 K, 18002 kPa, w1 = 0.1997 | 996.3
313.13 K, 18987 kPa, w1 = 0.2821 | 995.6
313.13 K, 18990 kPa, w1 = 0.4002 | 992.3
313.13 K, 18990 kPa, w1 = 0.4976 | 985.4
313.13 K, 19000 kPa, w1 = 0.1997 | 996.7
313.13 K, 19992 kPa, w1 = 0.4002 | 992.7
313.13 K, 19992 kPa, w1 = 0.4976 | 985.8
313.13 K, 19996 kPa, w1 = 0.2821 | 996
313.13 K, 20030 kPa, w1 = 0.1997 | 997.1
313.13 K, 20495 kPa, w1 = 0.4976 | 986
313.13 K, 20691 kPa, w1 = 0.4002 | 993
313.13 K, 20955 kPa, w1 = 0.2821 | 996.4
313.13 K, 21004 kPa, w1 = 0.1997 | 997.4
313.13 K, 22004 kPa, w1 = 0.1997 | 997.8
313.13 K, 23000 kPa, w1 = 0.1997 | 998.2
313.13 K, 24004 kPa, w1 = 0.1997 | 998.5
323.08 K, 1026 kPa, w1 = 0.2821 | 982.8
323.08 K, 2026 kPa, w1 = 0.2821 | 983.2
323.08 K, 2996 kPa, w1 = 0.2821 | 983.5
323.08 K, 4009 kPa, w1 = 0.2821 | 983.9
323.08 K, 5006 kPa, w1 = 0.2821 | 984.3
323.08 K, 6002 kPa, w1 = 0.2821 | 984.7
323.08 K, 6993 kPa, w1 = 0.2821 | 985.1
323.08 K, 7994 kPa, w1 = 0.2821 | 985.5
323.08 K, 9012 kPa, w1 = 0.2821 | 985.9
323.08 K, 9998 kPa, w1 = 0.2821 | 986.3
323.08 K, 11009 kPa, w1 = 0.2821 | 986.6
323.08 K, 11995 kPa, w1 = 0.2821 | 987
323.08 K, 12991 kPa, w1 = 0.2821 | 987.4
323.08 K, 14001 kPa, w1 = 0.2821 | 987.8
323.08 K, 14989 kPa, w1 = 0.2821 | 988.2
323.08 K, 15999 kPa, w1 = 0.2821 | 988.5
323.08 K, 16987 kPa, w1 = 0.2821 | 988.9
323.08 K, 17980 kPa, w1 = 0.2821 | 989.3
323.08 K, 18996 kPa, w1 = 0.2821 | 989.7
323.08 K, 19986 kPa, w1 = 0.2821 | 990.1
323.08 K, 20987 kPa, w1 = 0.2821 | 990.4
323.09 K, 1002 kPa, w1 = 0.4976 | 970.1
323.09 K, 1995 kPa, w1 = 0.4976 | 970.5
323.09 K, 3001 kPa, w1 = 0.4976 | 971
323.09 K, 4009 kPa, w1 = 0.4976 | 971.4
323.09 K, 5001 kPa, w1 = 0.4976 | 971.8
323.09 K, 5995 kPa, w1 = 0.4976 | 972.2
323.09 K, 7011 kPa, w1 = 0.4976 | 972.6
323.09 K, 7990 kPa, w1 = 0.4976 | 973
323.09 K, 9002 kPa, w1 = 0.4976 | 973.5
323.09 K, 9974 kPa, w1 = 0.4976 | 973.9
323.09 K, 10992 kPa, w1 = 0.4976 | 974.3
323.09 K, 11993 kPa, w1 = 0.4976 | 974.7
323.09 K, 12991 kPa, w1 = 0.4976 | 975.1
323.09 K, 13986 kPa, w1 = 0.4976 | 975.6
323.09 K, 14991 kPa, w1 = 0.4976 | 976
323.09 K, 15999 kPa, w1 = 0.4976 | 976.4
323.09 K, 16994 kPa, w1 = 0.4976 | 976.8
323.09 K, 18003 kPa, w1 = 0.4976 | 977.2
323.09 K, 18986 kPa, w1 = 0.4976 | 977.6
